Results from patent US7186743B2, “Substituted pyrazolyl compounds for the treatment of inflammation” (Pharmacia Corporation, priority 2001, dated 2007).
Counter-ions that a name gives are not always drawn. Like-named read-outs stand apart in the source and are kept apart here.

Biological target: T1, IKK2 (Homo sapiens, UniProt O14920)
T1 construct: made in house; host or cells: insect cells (baculovirus, pFastBac; SF9)
T1 sequence (O14920 1-756): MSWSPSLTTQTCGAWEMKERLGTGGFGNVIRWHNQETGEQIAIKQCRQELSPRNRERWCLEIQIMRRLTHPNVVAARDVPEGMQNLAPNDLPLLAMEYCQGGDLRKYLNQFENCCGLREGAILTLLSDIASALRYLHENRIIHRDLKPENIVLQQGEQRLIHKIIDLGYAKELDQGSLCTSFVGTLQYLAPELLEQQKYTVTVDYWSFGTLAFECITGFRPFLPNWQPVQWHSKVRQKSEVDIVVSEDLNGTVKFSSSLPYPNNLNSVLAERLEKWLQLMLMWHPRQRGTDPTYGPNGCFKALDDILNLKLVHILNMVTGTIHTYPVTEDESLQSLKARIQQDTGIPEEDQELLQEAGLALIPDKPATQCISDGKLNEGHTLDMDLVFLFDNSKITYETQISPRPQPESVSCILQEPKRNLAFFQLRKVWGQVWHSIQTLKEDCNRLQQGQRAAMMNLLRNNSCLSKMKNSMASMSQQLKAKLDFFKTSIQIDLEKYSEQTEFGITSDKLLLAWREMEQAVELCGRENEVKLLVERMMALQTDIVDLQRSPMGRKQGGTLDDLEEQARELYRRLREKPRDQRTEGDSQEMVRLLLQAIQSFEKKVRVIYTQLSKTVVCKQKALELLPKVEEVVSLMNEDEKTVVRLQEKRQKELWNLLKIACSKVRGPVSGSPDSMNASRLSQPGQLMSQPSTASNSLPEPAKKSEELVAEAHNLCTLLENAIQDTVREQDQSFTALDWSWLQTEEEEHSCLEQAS
Assay: IKKβ Resin Enzyme Assay (IKK2 resin)
Format: biochemical
Summary of the method: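 Enzyme: human IKK2 with a C-terminal FLAG tag, baculovirus-expressed, purified as homodimer on anti-FLAG resin. It phosphorylates a biotinylated IκBα peptide with 1 μM ATP plus [γ-33P]ATP in 25 mM Hepes pH 7.6, Mg/Mn, for 30 min at 25° C. Incorporation is counted by scintillation after anion-exchange resin stop.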

[1] = Table 23, read-out: IKK2 Resin IC50
[2] = Table 4, read-out: IKK2 Resin IC50
[3] = Table 14, read-out: IKK2 Resin IC50
[4] = Table 2, read-out: IKK Resin IC50
[5] = Table 3, read-out: IKK Resin IC50
[6] = Table 11, read-out: IKK2 Resin IC50

SMILES: COc1ccc(C(=O)Nc2ccc3c(c2)-c2c(c(C(N)=O)nn2-c2ccc(F)cc2)CC3)c(Cl)c1 [Example 233, 8-[(2-chloro-4-methoxybenzoyl)amino]-1-(4-fluorophenyl)-4,5-dihydro-1H-benzo[g]indazole-3-carboxamide]
- IC50 (Table 6, read-out: IKK2 Resin IC 50): ≤ 1000 nM

SMILES: NC(=O)c1nn(-c2ccc3c(c2)OCO3)c2c1CCc1ccc(NC(=O)CNC3CCC3)cc1-2 [Example 445, 1-(1,3-benzodioxol-5-yl)-8-[(N-cyclobutylglycyl)amino]-4,5-dihydro-1H-benzo[g]indazole-3-carboxamidehydrochloride]
- IC50 [1]: ≤ 1000 nM

SMILES: CN(C)CCSc1ccc(Cl)c(C(=O)Nc2ccc3c(c2)-c2c(c(C(N)=O)nn2-c2ccc4c(c2)OCO4)CC3)n1 [Example 218, 1-(1,3-benzodioxol-5-yl)-8-{[(3-chloro-6-{[2-(dimethylamino)ethyl]thio}pyridin-2-yl)carbonyl]amino}-4,5-dihydro-1H-benzo[g]indazole-3-carboxamide]
- IC50 (Table 5, read-out: IKK2 Resin Avg. IC50): ≤ 1000 nM

SMILES: NC(=O)c1nn(-c2ccc3c(c2)OCO3)c2c1CCc1ccc(NC(=O)c3cc(N)ccc3Cl)cc1-2 [Example 172, 8-[(5-amino-2-chlorobenzoyl)amino]-1-(1,3-benzodioxol-5-yl)-4,5-dihydro-1H-benzo[g]indazole-3-carboxamide]
- IC50 [2]: ≤ 1000 nM

SMILES: NC(=O)c1nn(-c2ccc(Br)cc2)c2c1CCc1ccc(NC(=O)c3ccccc3Cl)cc1-2 [Example 350, 1-(4-bromophenyl)-8-[(2-chlorobenzoyl)amino]-4,5-dihydro-1H-benzo[g]indazole-3-carboxamide]
- IC50 [3]: ≤ 1000 nM

SMILES: CS(=O)(=O)c1ccc(-n2nc(C(N)=O)c3c2-c2cc(NC(=O)c4ccc(Cl)c(N)c4)ccc2CC3)cc1 [Example 113, 8-[(3-amino-4-chlorobenzoyl)amino]-1-[4-(methylsulfonyl)phenyl]-4,5-dihydro-1H-benzo[g]indazole-3-carboxamide]
- IC50 [4]: ≤ 1000 nM

SMILES: CS(=O)(=O)c1ccc(-n2nc(C(N)=O)c3c2-c2cc(NC(=O)c4ccccc4Cl)ccc2CC3)cc1 [Example 95, 8-[(2-chlorobenzoyl)animo]-1-[4-(methylsulfonyl)phenyl]-4,5-dihydro-1H-benzo[g]indazole-3-carboxamide]
- IC50 [4]: ≤ 1000 nM

SMILES: CS(=O)(=O)c1ccc(-n2nc(C(N)=O)c3c2-c2cc(NC(=O)c4cc(N=[N+]=[N-])ccc4[N+](=O)[O-])ccc2CC3)cc1 [Example 121, 8-[(5-azido-2-nitrobenzoyl)amino]-1-[4-(methylsulfonyl)phenyl]-4,5-dihydro-1H-benzo[g]indazole-3-carboxamide]
- IC50 [4]: ≤ 1000 nM

SMILES: NC(=O)c1nn(-c2ccc(N3CCOCC3)cc2)c2c1CCc1ccc(NC(=O)c3cccnc3Cl)cc1-2 [Example 288, 8-{[(2-chloropyridin-3-yl)carbonyl]amino}-1-(4-morpholin-4-ylphenyl)-4,5-dihydro-1H-benzo[g]indazole-3-carboxamide]
- IC50 (read-out: IKK-2 resin IC50): 1000 to 10000 nM

SMILES: CS(=O)(=O)c1ccc(Cl)c(C(=O)Nc2ccc3c(c2)-c2c(c(C(N)=O)nn2-c2ccc4c(c2)OCO4)CC3)c1 [Example 185, 1-(1,3-benzodioxol-5-yl)-8-{[2-chloro-5-(methylsulfonyl)benzoyl]amino}-4,5-diliydro-1H-benzo[g]indazole-3-carboxamide]
- IC50 [2]: ≤ 1000 nM

SMILES: CS(=O)(=O)c1ccc(-n2nc(C(N)=O)c3c2-c2cc(NC(=O)c4ccc(C(F)(F)F)cc4[N+](=O)[O-])ccc2CC3)cc1 [Example 152, 1-[4-(methylsulfonyl)phenyl]-8-{[2-nitro-4-(trifluoromethyl)benzoyl]amino}-4,5-dihydro-1H-benzo[g]indazole-3-carboxamide]
- IC50 [5]: ≤ 1000 nM

SMILES: CS(=O)(=O)c1ccc(-n2nc(C(N)=O)c3c2-c2cc(NC(=O)c4cc(Cl)ccc4Cl)ccc2CC3)cc1 [Example 108, 8-[(2,5-dichlorobenzoyl)amino]-1-[4-(methylsulfonyl)phenyl]-4,5-dihydro-1H-benzo[g]indazole-3-carboxamide]
- IC50 [4]: ≤ 1000 nM

SMILES: NC(=O)c1nn(-c2ccc(/C=C\CO)cc2)c2c1CCc1ccc(NC(=O)c3cccnc3Cl)cc1-2 [Example 300, 8-{[(2-chloropyridin-3-yl)carbonyl]amino}-1-{4-[(1Z)-3-hydroxyprop-1-enyl]phenyl}-4,5-dihydro-1H-benzo[g]indazole-3-carboxamide]
- IC50 [6]: ≤ 1000 nM

SMILES: COc1ccc(Cl)c(C(=O)Nc2ccc3c(c2)-c2c(c(C(N)=O)nn2-c2ccc4c(c2)OCO4)CC3)c1 [Example 178, 1-(1,3-benzodioxol-5-yl)-8-[(2-chloro-5-methoxybenzoyl)amino]-4,5-dihydro-1H-benzo[g]indazole-3-carboxamide]
- IC50 [2]: ≤ 1000 nM

SMILES: NC(=O)c1nn(-c2ccc(S(=O)(=O)C(F)(F)F)cc2)c2c1CCc1ccc(NC(=O)c3ccncc3Cl)cc1-2 [Example 358, 8-[(3-chloroisonicotinoyl)amino]-1-{4-[(trifluoromethyl)sulfonyl]phenyl}-4,5-dihydro-1H-benzo[g]indazole-3-carboxamide hydrochloride]
- IC50 [3]: ≤ 1000 nM

SMILES: CC(C)(C)NCC(=O)Nc1ccc2c(c1)-c1c(c(C(N)=O)nn1-c1ccc3c(c1)OCO3)CC2 [Example 450, 1-(1,3-benzodioxol-5-yl)-8-{[N-(tert-butyl)glycyl]amino}-4,5-dihydro-1H-benzo[g]indazole-3-carboxamide]
- IC50 [1]: ≤ 1000 nM

SMILES: NC(=O)c1nn(-c2ccc(F)cc2F)c2c1CCc1ccc(NC(=O)c3cccnc3Cl)cc1-2 [Example 366, 8-{[(2-chloropyridin-3-yl)carbonyl]amino}-1-(2,4-difluorophenyl)-4,5-dihydro-1H-benzo[g]indazole-3-carboxamide]
- IC50 [3]: ≤ 1000 nM

SMILES: NC(=O)c1nn(-c2ccc3c(c2)OCO3)c2c1CCc1ccc(NC(=O)c3cccc(Cl)c3Cl)cc1-2 [Example 194, 1-(1,3-benzodioxol-5-yl)-8-[(2,3-dichlorobenzoyl)amino]-4,5-dihydro-1H-benzo[g]indazole-3-carboxamide]
- IC50 [2]: ≤ 1000 nM

SMILES: CC(C)(O)/C=C/c1ccc(-n2nc(C(N)=O)c3c2-c2cc(NC(=O)c4ccccc4Cl)ccc2CC3)cc1 [Example 289, 8-[(2-chlorobenzoyl)amino]-1-{4-[(1E)-3-hydroxy-3-methylbut-1-enyl]phenyl}-4,5-dihydro-1H-benzo[g]indazole-3-carboxamide]
- IC50 [6]: ≤ 1000 nM

SMILES: NC(=O)c1nn(-c2ccc(/C=C/C(=O)O)cc2)c2c1CCc1ccc(NC(=O)c3ccccc3Cl)cc1-2 [Example 291, (2E)-3-(4-{3-(aminocarbonyl)-8-[(2-chlorobenzoyl)amino]-4,5-dihydro-1H-benzo[g]indazol-1-yl}phenyl)prop-2-enoic acid]
- IC50 [6]: ≤ 1000 nM

SMILES: NC(=O)c1nn(-c2cccc(O)c2)c2c1CCc1ccc(NC(=O)c3cc4c(cc3Cl)OCO4)cc1-2 [Example 277, 8-{[(6-chloro-1,3-benzodioxol-5-yl)carbonyl]amino}-1-(3-hydroxyphenyl)-4,5-dihydro-1H-benzo[g]indazole-3-carboxamide]
- IC50 (Table 10, read-out: IKK2 Resin IC50): ≤ 1000 nM

SMILES: NC(=O)c1nn(-c2ccc3c(c2)OCO3)c2c1CCc1ccc(NC(=O)c3cc(F)c(F)cc3Cl)cc1-2 [Example 166, 1-(1,3-benzodioxol-5-yl)-8-[(2-chloro-4,5-difluorobenzoyl)amino]-4,5-dihydro-1H-benzo[g]indazole-3-carboxamide]
- IC50 [2]: ≤ 1000 nM

SMILES: NC(=O)c1nn(-c2ccc(F)c(F)c2)c2c1CCc1ccc(NC(=O)c3ccccc3Cl)cc1-2 [Example 363, 8-[(2-chlorobenzoyl)amino]-1-(3,4-difluorophenyl)-4,5-dihydro-1H-benzo[g]indazole-3-carboxamide]
- IC50 [3]: ≤ 1000 nM

SMILES: CS(=O)(=O)c1ccc(-n2nc(C(N)=O)c3c2-c2cc(NC(=O)c4ccc(Cl)cc4[N+](=O)[O-])ccc2CC3)cc1 [Example 132, 8-[(4-chloro-2-nitrobenzoyl)amino]-1-[4-(methylsulfonyl)phenyl]-4,5-dihydro-1H-benzo[g]indazole-3-carboxamide]
- IC50 [5]: ≤ 1000 nM

SMILES: NC(=O)c1nn(-c2ccc3c(c2)OCO3)c2c1CCc1ccc(NC(=O)c3cccc(N)c3Cl)cc1-2 [Example 171, 8-[(3-amino-2-chlorobenzoyl)amino]-1-(1,3-benzodioxol-5-yl)-4,5-dihydro-1H-benzo[g]indazole-3-carboxamidehydrochloride]
- IC50 [2]: ≤ 1000 nM

SMILES: NC(=O)c1nn(-c2cccs2)c2c1CCc1ccc(NC(=O)c3ccncc3Cl)cc1-2 [Example 382, 8-[(3-chloroisonicotinoyl)amino]-1-thien-2-yl-4,5-dihydro-1H-benzo[g]indazole-3-carboxamide]
- IC50 (Table for Examples 381-385 (headed TABLE 14), read-out: IKK2 Resin IC50): ≤ 1000 nM
